In patent publication US5478832A, “Quinoline compounds” (The Green Cross Corporation, priority 1992, dated 1995):

target: T1, angiotensin II receptor (Rattus norvegicus, UniProt P25095); experiment: Inhibition of binding of angiotensin II to rat smooth muscle cells (125I-Tyr4-angiotensin II); conditions: 125I-AII; rat aorta-derived smooth muscle cells; room temperature, one hour; read-out: IC50, inhibitory activity to the binding of angiotensin II to its receptor
T1 sequence (P25095 1-359): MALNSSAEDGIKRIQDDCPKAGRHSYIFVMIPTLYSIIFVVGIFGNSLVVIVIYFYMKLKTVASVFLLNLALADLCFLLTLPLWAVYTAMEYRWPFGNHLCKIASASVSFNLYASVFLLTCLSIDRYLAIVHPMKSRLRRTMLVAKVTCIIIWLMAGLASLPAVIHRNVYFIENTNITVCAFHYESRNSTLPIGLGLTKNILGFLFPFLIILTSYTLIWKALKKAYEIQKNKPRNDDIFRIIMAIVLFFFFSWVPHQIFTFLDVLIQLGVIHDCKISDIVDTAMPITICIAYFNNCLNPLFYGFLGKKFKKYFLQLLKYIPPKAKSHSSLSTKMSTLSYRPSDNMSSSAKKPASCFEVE

Row | IC50 [nM] | SMILES
1 | 6.4 | CCc1nc2c(C)cc(C)nc2n1Cc1ccc2nc(-c3ccccc3C(=O)O)ccc2c1
2 | 50 | CCCCc1nc(Cl)c(C=O)n1Cc1ccc2nc(-c3ccccc3C(=O)O)ccc2c1
3 | 0.92 | CCCCc1nc(Cl)c(CO)n1Cc1ccc2nc(-c3ccccc3C(=O)O)ccc2c1
4 | 2.5 | CCCCc1nc(Cl)c(CO)n1Cc1ccc2nc(-c3ccccc3-c3nnn[nH]3)ccc2c1 [Example 11, {2-butyl-4-chloro-1-{[2-[2-(1H-tetrazol-5-yl)phenyl]quinolin-6-yl]methyl}-1H-imidazol-5-yl}methanol]
5 | 440 | CCc1nc2c(C)cc(C)nc2n1Cc1ccc2nc(-c3ccccc3C(=O)OC)ccc2c1 [Example 12, methyl 2-{6-[(2-ethyl-5,7-dimethyl-3H-imidazo-[4,5-b]pyridin-3-yl)methyl]quinolin-2-yl}benzoate]
6 | 0.94 | CCc1nc2c(C)cc(C)nc2n1Cc1ccc2nc(-c3ccccc3-c3nnn[nH]3)ccc2c1 [Example 15, 2-ethyl-5,7-dimethyl-3-{[2-[2-(1H-tetrazol-5-yl)phenyl]quinolin-6-yl]methyl}-3H-imidazo[4,5-b]pyridine]
7 | 11 | CCCCc1nc2cccnc2n1Cc1ccc2nc(-c3ccccc3C(=O)O)ccc2c1 [Example 17]
8 | 7.7 | CCc1nc2c(C)cc(C)nc2n1Cc1ccc2nc(-c3ccccc3-c3nnn[nH]3)cc(Cl)c2c1 [Example 21, 2-ethyl-5,7-dimethyl-3-{[4-chloro-2-[2-(1H-tetrazol-5-yl)phenyl]quinolin-6-yl]methyl}-3H-imidazo[4,5-b]pyridine]
